Experimental data as given in patent US11369650B2, “Methods for reversing multiple resistance in animal cells” (priority 2004, dated 2022).

Experiments:
[1] = tested on: U373 tumour cells; assay: Southern blot of dl520 replication after Irinotecan; type: cell-based; conditions: U373, 5 μM Irinotecan 24 h before 10 pfu/cell dl520
Experimental: In order to determine the effect of Irinotecan on adenoviral replication 10^6 U373 tumour cells were plated in 10 cm^2 Petri dishes. In a first reaction 5 μM Irinotecan was added after 24 hours. After another 24 hours the cells were infected with 10 pfu/cell dl520. After incubation of 3 days without Irinotecan DNA was isolated in accordance with the procedure described in example 10.
In a parallel reaction the thus prepared U373-cells were not pre-incubated with Irinotecan. After 48 hours of cultivating the cells without Irinotecan, they were infected with 10 pfu/cell dl520 and subsequently incubated without Irinotecan for another 3 days. DNA was isolated as described above.
Subsequently […] were digested with restriction enzyme Kpn I and a Southern Blot analysis performed. A part of the adenoviral genome (position: 22734-24235) generated by means of PCR was used as a probe.

[2] = tested on: U373 cells; assay: Oncolysis of U373 cells by dl520 with Irinotecan and Trichostatin A, crystal violet; type: cell-based; conditions: U373, 2 μM Irinotecan
Experimental: 200,000 U373 cells were plated in a 6 well plate. After 24 hours either 2 μM Irinotecan or only 1 μM Trichostatin A or 1 μM Irinotecan+0.5 μM Trichostatin were added to the medium. After 24 hours of incubation the cells were infected with 10, 20 and 30 pfu/cell dl520. After 3-5 days the analysis was performed using crystal violet staining. The assays were performed in duplicate.
The further 6 well plates 2, 3 and 4 depicted in FIG. 22, herein also referred to as panels 2, 3 and 4, were basically treated in accordance with this scheme. The individual wells were inoculated with U373 cells as previously described and the cells cultivated therein. The wells were inoculated with 10, 20 or 30 pfu/cell dl520 in duplicate, whereby the difference between the three 6 well plates resided in the kind of cytostatics used. In panel 2 2 μM Irinotecan, in panel 3 […] and in panel 4 1 μM Irinotecan and 0.5 μM Trichostatin A was added to the individual plates.

[3] = tested on: U373 tumour cells; assay: Southern blot of dl520 replication after Trichostatin A; type: cell-based; conditions: U373, 0.25, 0.5 and 0.75 μM Trichostatin A, 10 pfu/cell dl520
Experimental: In order to test the effect of Trichostatin A on adenoviral replication, 10^6 U373 tumour cells were plated in 10 cm^2 Petri dishes. After 24 hours 0.25, 0.5 and 0.75 μM Trichostatin A was added. After another 24 hours the cells were infected with 10 pfu/cell dl520.
After 3 days of incubation in medium without Trichostatin DNA was isolated. Subsequently 2 μg DNA were digested with restriction enzyme Kpn I and a Southern Blot analysis performed. A part of the adenoviral genome (position: 22734-24235) generated by means of PCR was used as a probe.

[4] = tested on: Coxsackievirus-adenovirus-receptor (CAR) on U373 cells; assay: FACS analysis of CAR expression; type: cell-based; conditions: U373, 1 μM Trichostatin, 24 hours
Experimental: 200,000 U373 cells were plated in 6 well plates. After 24 hours the cells were cultivated with 1 μM Trichostatin for 24 hours. After another 24 hours the cells were isolated. Subsequently, analysis of CAR expression was performed according to a standard protocol using Facs-analysis and the primary antibody anti-CAR clone RmcB from the company Upstate, and a rabbit-anti-mouse FITC as secondary antibody (company DAKO).

[5] = tested on: U2OS cells; assay: Oncolytic assay with daunorubicine and dl520, crystal violet; type: cell-based, human; conditions: 40 ng/ml
Experimental: (§1) In the practising of the oncolytic assays the following procedure was followed: 200,000 cells (HeLa and U2OS, respectively) were plated into each well of a 6 well plate. On the next day 40 ng/ml (final concentration) of daunorubicine were added. After 3 hours of incubation the cells were infected with 10 and 30 pfu dl520/cell, respectively. Subsequently, the cells were incubated in cytostatic free medium. After 3-5 days the cells were stained using crystal violet.

[6] = tested on: HeLa cells; assay: as above; type: cell-based; conditions: 40 ng/ml
Experimental: as §1

With `CCc1c2c(nc3ccc(OC(=O)N4CCC(N5CCCCC5)CC4)cc13)-c1cc3c(c(=O)n1C2)COC(=O)[C@]3(O)CC` [Irinotecan] the “adenoviral (dl520) replication compared to untreated control” value [1] was “significantly increased” and the “dl520 titer at which the cells were lysed” value [2] was 30 pfu/cell.
`CC(/C=C/C(=O)NO)=C\[C@@H](C)C(=O)c1ccc(N(C)C)cc1` [Trichostatin A] was tested, and the “viral (dl520) replication compared to untreated controls” value [3] was “significantly increased” and the CAR-positive cells [4] was 56.2%.
`COc1cccc2c1C(=O)c1c(O)c3c(c(O)c1C2=O)C[C@@](O)(C(C)=O)C[C@@H]3O[C@H]1C[C@H](N)[C@H](O)[C@H](C)O1` [daunorubicine] was tested, and the “effect of daunorubicine on replication of dl520” value [5] was “induces the replication of dl520” and the “effect of daunorubicine on replication of dl520” value [6] was “induces the replication of dl520”.
